A short description of this data set: Single-dose escalation study of nebulized inhalation solution in healthy volunteers, safety and pharmacokinetics (Example 7). Format: in vivo. The following applies: for subjects with local symptoms in the oropharynx and respiratory tract: nebulized inhalation solution, single dose. On the procedure: A randomized, double-blind, placebo-controlled clinical study was conducted with 22 healthy volunteers to evaluate the safety and tolerability of single-dose inhalation of EGCG nebulized solution, as well as pharmacokinetic characteristics, compared to placebo nebulized solution and oral EGCG capsules.
Test group: EGCG nebulized inhalation solution (the EGCG nebulized solution containing EDTA as described in Example 6), with an initial concentration of 10mg/mL, diluted to different doses before administration.
Oral control group: EGCG capsules, each weighing 150mg, with EGCG content approximately 94% of the total weight.
Refer to Table 6 below. The oral control group was randomly assigned 4 volunteers to receive 600mg of EGCG capsules (4 capsules, approximately 564mg of EGCG).
The EGCG nebulized inhalation treatment included 3 groups: • 1. 3mg dose group: 1mL of the starting drug solution was diluted to 1mg/mL, and 3mL was administered via the nebulizer. • 2. 10mg dose group: 1mL of the starting drug solution was diluted to 3.33mg/mL, and 3mL was administered via the nebulizer. • 3. 30mg dose group: The starting drug solution was not diluted, and 3mL was directly administered via the nebulizer.
Each nebulized inhalation dose group was randomly assigned 6 volunteers, starting with the lowest dose. In each group, 2 volunteers were designated as sentinels (1:1 randomization, 1 in the EGCG nebulized inhalation group and 1 in the placebo group), observed for ≥24 hours, and the study investigator performed a safety assessment. After permission from the investigator, the remaining 4 volunteers in each group received their assigned treatment (3:1 randomization, 3 in the EGCG nebulized inhalation group and 1 in the placebo group). Table 6: Group Information for Oral Control and EGCG Nebulized Inhalation Administration Groups.
Blood samples were collected from the subjects at 13 time points: pre-dose (within 1 hour before administration), and post-dose at 15 minutes, 30 minutes, 1 hour, 1.5 hours, 2 hours, 3 hours, 4 hours, 6 hours, 8 hours, 10 hours, 12 hours, and 24 hours. A total of 4mL of blood was collected at each time point, and plasma was extracted for pharmacokinetic (PK) testing, backup, and metabolite identification.
Adverse event (AE) monitoring; physical examination; vital signs (body temperature, blood pressure, pulse, respiration), blood oxygen saturation; heart function; lung function.

Setting [1] is: human plasma, after inhalation compared to oral administration.

Here are results for 1 compound from patent EP4623908A1, “USE OF (-)-EPIGALLOCATECHIN GALLATE COMPOUND” (CF Pharmtech, Inc., priority 2022, dated 2024).

Regarding `O=C(O[C@@H]1Cc2c(O)cc(O)cc2O[C@@H]1c1cc(O)c(O)c(O)c1)c1cc(O)c(O)c(O)c1` [EGCG, (-)-Epigallocatechin gallate], the overall tolerability result (after nebulized inhalation 3mg/10mg/30mg) is given as “overall tolerability was good”. Under “all subjects (nebulized 3mg/10mg/30mg, oral capsules 600mg)”, the “physical examination, vital signs, heart function, and lung function” value is reported as “No significant abnormalities”. Moreover, the “inhalation Cmax relative to the oral Cmax” value (human plasma, 10mg nebulized dose group vs oral capsules 600mg) is “about 1/227”. Besides, under setting [1], the Cmax level entry is on record as “lower”. Further, under setting [1], the “time to reach peak plasma concentration (Tmax)” value is “later”. The “subjects with local symptoms in the oropharynx and respiratory tract” value is “no subjects” (3mg dose group); 1 out of 4 (10mg dose group, mild); 2 out of 4 (30mg dose group, mild).
